Test results from patent US20090181972A1, “Novel Inhibitors of Cysteine Proteases, the Pharmaceutical Compositions Thereof and their Therapeutic Applications” (priority 2005, published 2009).

What was measured:
[1] = tested on: PC-3 prostate cancer cells; experiment: PC3 cell viability and proliferation assay (MTS); format: cell-based; details: Homo sapiens, PC-3, 72 hours incubation, mean of three independent experiments, read-out: PC3 GI50 D3
Protocol: PC-3 prostate cancer cells were obtained from ATCC, and maintained in F-12K medium containing 7% FBS and 1% penicillin/streptomycin. Cells were incubated at 37° C. in a humidified atmosphere containing 5% CO2.
(§1) Cell viability was assayed using the MTS technique in 96-well culture plates (CellTiter 96® Aqueous Non-Radioactive Cell Proliferation Assay, Promega) according to the manufacturer's instructions. MTS (3-(4,5-dimethyl-thiazol-2-yl)-5-(3-carboxymethoxyphenyl)-2-(4-sulfophenyl)-2H-tetrazolium) is a MTT-derived tetrazolium that is reduced in metabolically active cells into a soluble, cell-permeant formazan. The amount of formazan, detected by its absorbance at 492 nm is proportional to the number of living, metabolically active cells.
(§2) 2×10^3 PC3 cells were seeded per well. 24 hours later, the medium was changed and the cells treated in triplicate with the following concentrations of each compound: 10 μM-3.33 μM-1.11 μM-370 nM-123 nM-41 nM-14 nM and 5 nM. The compounds were diluted in 100% DMSO, whose final concentration on cells was kept at 0.5%.
(§3) Cells were incubated with the compounds for 72 hours, and their viability then assayed by the addition of MTS for 2 hours. Absorbance at 492 nm was measured directly from the 96-well culture plates. GI50 (Growth Inhibition 50) concentrations for each compound were calculated using a sigmoidal variable slope fit (Prism 4.0, Graphpad Softwares). Values represent mean of three independent experiments.

USP5 = target: T1, USP5 (Homo sapiens, UniProt P45974); experiment: USP5 activity assay; format: biochemical; details: 400 nM Ub-AMC, 300 pM enzyme; pre-incubated 30 minutes at 25° C., 60 minutes at 37° C.; sigmoidal fit; read-out: USP 5
T1 sequence (P45974 1-858): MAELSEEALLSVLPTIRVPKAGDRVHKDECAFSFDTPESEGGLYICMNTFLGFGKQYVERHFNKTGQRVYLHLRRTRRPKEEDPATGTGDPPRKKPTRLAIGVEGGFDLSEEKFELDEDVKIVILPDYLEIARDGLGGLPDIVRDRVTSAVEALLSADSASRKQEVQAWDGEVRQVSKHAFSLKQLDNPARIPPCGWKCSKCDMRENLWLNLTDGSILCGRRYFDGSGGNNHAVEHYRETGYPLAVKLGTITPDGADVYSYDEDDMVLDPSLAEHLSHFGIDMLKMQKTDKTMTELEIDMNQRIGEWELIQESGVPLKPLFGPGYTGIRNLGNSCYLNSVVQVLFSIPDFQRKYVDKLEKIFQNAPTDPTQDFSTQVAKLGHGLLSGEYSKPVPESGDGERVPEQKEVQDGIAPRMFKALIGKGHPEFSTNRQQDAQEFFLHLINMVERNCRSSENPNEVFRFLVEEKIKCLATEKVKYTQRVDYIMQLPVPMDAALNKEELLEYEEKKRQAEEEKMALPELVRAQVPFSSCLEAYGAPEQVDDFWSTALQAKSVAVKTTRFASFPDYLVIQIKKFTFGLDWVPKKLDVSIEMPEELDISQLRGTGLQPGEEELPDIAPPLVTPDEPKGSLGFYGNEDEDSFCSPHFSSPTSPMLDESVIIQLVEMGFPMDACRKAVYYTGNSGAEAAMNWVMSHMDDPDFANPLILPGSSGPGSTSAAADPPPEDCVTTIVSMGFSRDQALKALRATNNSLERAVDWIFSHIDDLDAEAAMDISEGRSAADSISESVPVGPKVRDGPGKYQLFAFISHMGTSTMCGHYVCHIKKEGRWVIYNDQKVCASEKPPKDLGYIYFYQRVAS
Protocol: USP5 was diluted in USP buffer (50 mM Tris HCl; 0.5 mM EDTA; 5 mM DTT; 0.01% Triton X-100; Bovine Serum Albumin 0.05 mg.ml^−1 pH 7.6). Compounds stocks (100 mM) were stored at -20° C. in DMSO.
(§4) Reactions were performed as duplicates in Black LJL 96 well plates (HE microplates; Molecular Devices; 20 μl final reaction volume). The substrate concentration for USP5 was 400 nM Ub-AMC (Boston Biochem). The concentrations of the enzyme (USP5) in specificity assays was 300 pM. The concentrations were determined in order to perform specificity assays under initial velocities at fixed substrate concentration. Compounds were pre-incubated with enzymes for 30 minutes at 25° C. Reactions were initiated by addition of substrate to the plates containing the enzymes (+/− compounds) diluted in assay buffer. Reactions were incubated for 60 minutes at 37° C. Reactions were stopped by adding acetic acid (100 mM final). Readings were performed on a Pherastar Fluorescent Reader (BMG). λ Emission 380 nm; λ Excitation=460 nm. Data (mean values +/− standard deviation) were analyzed as % of control (no compound) and plotted as percentage versus the Log of the compound concentration using GraphPad (Prism). Data were fitted to a sigmoidal model (variable slope).

[2] = tested on: HCT116 colon cancer cells; experiment: HCT116 cell viability and proliferation assay (MTS); format: cell-based; details: Homo sapiens, HCT-116, 72 hours incubation, mean of three independent experiments, read-out: HCT116 GI50 D3
Protocol: HCT116 colon cancer cells were obtained from ATCC (American Type Culture Collection), and maintained in Mc Coy's 5A medium containing 10% FBS, 3 mM glutamine and 1% penicillin/streptomycin. Cells were incubated at 37° C. in a humidified atmosphere containing 5% CO2.
as §1, with “(3-(4,5-dimethyl-thiazol-2-yl)-5-(3-carboxymethoxyphenyl)-2-(4-sulfophenyl)-2H-tetra-zolium)” for “(3-(4,5-dimethyl-thiazol-2-yl)-5-(3-carboxymethoxyphenyl)-2-(4-sulfophenyl)-2H-tetrazolium)”
as §2, with “10^3 HCT116” for “2×10^3 PC3”
as §3, with “G150” for “GI50”

USP7 = target: T2, USP7 (Homo sapiens, UniProt Q93009); experiment: USP7 activity assay; format: biochemical; details: 400 nM Ub-AMC, 152 pM enzyme; pre-incubated 30 minutes at 25° C., 60 minutes at 37° C.; sigmoidal fit; read-out: USP 7
T2 construct: His tag (pFastBac-HT vector) (N); made in house; host or cells: Sf9 or High Five insect cells (baculovirus)
T2 sequence (Q93009 whole entry): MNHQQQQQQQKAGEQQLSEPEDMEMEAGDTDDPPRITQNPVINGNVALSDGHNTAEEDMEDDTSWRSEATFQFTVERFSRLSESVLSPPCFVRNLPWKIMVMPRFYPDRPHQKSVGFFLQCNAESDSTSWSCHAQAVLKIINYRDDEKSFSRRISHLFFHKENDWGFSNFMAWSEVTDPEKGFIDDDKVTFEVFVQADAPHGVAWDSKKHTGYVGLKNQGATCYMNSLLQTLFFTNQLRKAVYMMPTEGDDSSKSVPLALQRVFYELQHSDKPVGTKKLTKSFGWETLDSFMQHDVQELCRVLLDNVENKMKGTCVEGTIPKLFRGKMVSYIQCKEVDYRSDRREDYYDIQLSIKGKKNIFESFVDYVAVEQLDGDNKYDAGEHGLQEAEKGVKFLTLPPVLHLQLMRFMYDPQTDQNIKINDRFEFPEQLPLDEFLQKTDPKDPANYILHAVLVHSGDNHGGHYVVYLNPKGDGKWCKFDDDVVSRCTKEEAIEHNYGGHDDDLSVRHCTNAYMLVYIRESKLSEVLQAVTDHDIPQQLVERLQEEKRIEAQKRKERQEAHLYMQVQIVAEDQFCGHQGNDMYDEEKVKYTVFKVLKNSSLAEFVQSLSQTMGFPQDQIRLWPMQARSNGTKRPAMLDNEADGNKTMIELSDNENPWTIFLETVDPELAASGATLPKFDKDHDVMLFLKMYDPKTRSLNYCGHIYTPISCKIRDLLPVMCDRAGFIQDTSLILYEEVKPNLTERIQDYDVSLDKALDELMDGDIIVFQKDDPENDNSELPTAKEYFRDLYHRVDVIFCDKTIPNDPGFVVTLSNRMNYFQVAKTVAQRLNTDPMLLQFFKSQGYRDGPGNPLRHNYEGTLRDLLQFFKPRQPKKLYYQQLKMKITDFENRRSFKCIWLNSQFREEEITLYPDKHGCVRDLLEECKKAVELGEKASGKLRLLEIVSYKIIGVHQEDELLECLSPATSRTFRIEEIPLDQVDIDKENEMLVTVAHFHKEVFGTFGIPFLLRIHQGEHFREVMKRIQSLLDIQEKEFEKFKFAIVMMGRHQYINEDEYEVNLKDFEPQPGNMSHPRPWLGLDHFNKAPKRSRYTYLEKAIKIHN
Description: The cDNA encoding USP7 was obtained by PCR amplification from placenta mRNA. USP7 cDNA was subcloned by PCR into a baculovirus expression vector (pFastBac-HT; Invitrogen). A cDNA encoding a mutated USP7 was generated by mutagenic PCR. The corresponding protein encodes a cysteine to alanine substitution at residue 223. The sequences were ascertained by sequencing of the entire open reading frame. Bacmids encoding USP7 were generated following DH10bac transposition. The corresponding bacmids were transfected into insect cells (Sf9). Viruses were recovered from culture supernatant and amplified twice. Insect cells (Sf9 or High Five; lnvitrogen) were infected for 72 hours. Total cell lysates were harvested and lyzed in lysis buffer (Tris HCl 50 mM pH 7.6; 0.75 % NP40; 500 mM NaCl; 10% glycerol; 1 mM DTT; 10 mM imidazole; Protease Inhibitor Cocktail; AEBSF 20 μg.ml^−1; Aprotinin 10 μg.ml^−1). Proteins were affinity purified on metal affinity resins (Talon Metal affinity resin; BD Biosciences). Bound materials were extensively washed in wash buffer (50 mM Sodium Phosphate pH 7.0; 300 mM NaCl; 10 mM imidazole; 0.5% Triton X-100; 10% glycerol) and eluted from the resin in 250 mM imidazole-containing wash buffer. Proteins were dialyzed in dialysis buffer (Tris HCl pH 7.6 20 mM; NaCl 200 mM; DTT 1 mM; EDTA 1 mM; 10% Glycerol). Proteins purifications were analyzed on 4-12% NuPAGE (Invitrogen).
USP7 was diluted in USP buffer (50 mM Tris HCl; 0.5 mM EDTA; 5 mM DTT; 0.01 % Triton X-100; Bovine Serum Albumin 0.05 mg.ml^−1 pH 7.6). Compounds stocks (100 mM) were stored at −20° C. in DMSO. Compounds were tested at the following final concentrations: 100 μM; 33.3 μM; 11.1 μM; 3.7 μM; 1.23 μM; 412 nM; 137 nM; 45.7 nM; 15.2 nM; 5 nM.
as §4, with “USP7” for “USP5”, “Ub-AMC (Chem. Biol., 2003, 10, p. 837-846)” for “Ub-AMC”, “(USP7)” for “(USP5)”, “152” for “300”

| GI50 [1] [nM] | IC50 (USP5) [nM] | GI50 [2] [nM] | IC50 (USP7) [nM] | Compound |
| --- | --- | --- | --- | --- |
| 107 | 317 | 160 | – | O=C1c2ccccc2-c2nn3c(C4CC4)nnc3nc21 [Example 1j/B, 3-Cyclopropyl-1,2,3a,4,10-pentaaza-cyclopenta[b]fluoren-9-one] |
| – | 34800 | – | – | O=C1c2ccccc2-c2nc3nnc(Cc4ccccc4)n3nc21 [Example 1k/A, 1-Benzyl-2,3,4,10,10a-pentaaza-cyclopenta[b]fluoren-9-one] |
| 235 | 206 | 149 | – | O=C1c2ccccc2-c2nn3c(Cc4ccccc4)nnc3nc21 [Example 1k/B, 3-Benzyl-1,2,3a,4,10-pentaaza-cyclopenta[b]fluoren-9-one] |
| – | > 100000 | – | > 100000 | O=C1c2ccccc2-c2nc3nn(Cc4ccccc4)nc3nc21 [Example 4b, 2-Benzyl-2H-1,2,3,4,10-pentaaza-cyclopenta[b]fluoren-9-one] |
